Assay results: the supplement of paper PMC10307832

Experiments:
Assay in all cases: relative viability (nuclei count vs DMSO), 5 days (fraction); higher = more cells survive
NCI-H1915 = test system: NCI-H1915
In short: (§1)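 The day after seeding in 1536-well plates, lung cancer cell lines were treated by pin tool with a single drug, or with a fixed anchor-drug dose together with five library-drug doses (not always all listed) in √10 steps. After 5 days, a combined fix-and-stain solution (final 0.05% Triton X-100, 1% formaldehyde, 1 ug/ml Hoechst) was added. Nuclei counted on 4× images gave relative viability as treated counts over vehicle counts, reported as the median of duplicate plates.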

NCI-H1993 = test system: NCI-H1993
In short: as §1

NCI-H2228 = test system: NCI-H2228
In short: as §1

NCI-H460 = test system: NCI-H460
In short: as §1

NCI-H596 = test system: NCI-H596
In short: as §1

NCI-H650 = test system: NCI-H650
In short: as §1

NCI-H661 = test system: NCI-H661
In short: as §1

PC-3 [JPC-3] = test system: PC-3 [JPC-3]
In short: as §1

RERF-LC-KJ = test system: RERF-LC-KJ
In short: as §1

SK-MES-1 = test system: SK-MES-1
In short: as §1

SW 1573 = test system: SW 1573
In short: as §1

SMILES: C=C1C(=O)O[C@@H](CCCCCCCC)[C@@H]1C(=O)O [C-75] + CC(=O)Nc1cccc(-n2c(=O)n(C3CC3)c(=O)c3c(Nc4ccc(I)cc4F)n(C)c(=O)c(C)c32)c1 [Trametinib] (partner 0.02 µM)
- relative viability (NCI-H1915; first compound 0.253 µM): 0.288
- relative viability (NCI-H1915; first compound 0.8 µM): 0.32
- relative viability (NCI-H1915; first compound 2.53 µM): 0.273
- relative viability (NCI-H1915; first compound 8 µM): 0.359
- relative viability (NCI-H1993; first compound 0.08 µM): 0.573
- relative viability (NCI-H1993; first compound 0.253 µM): 0.541
- relative viability (NCI-H1993; first compound 0.8 µM): 0.507
- relative viability (NCI-H1993; first compound 2.53 µM): 0.576
- relative viability (NCI-H1993; first compound 8 µM): 0.557
- relative viability (NCI-H2228; first compound 0.08 µM): 0.666
- relative viability (NCI-H2228; first compound 0.253 µM): 0.673
- relative viability (NCI-H2228; first compound 0.8 µM): 0.444
- relative viability (NCI-H2228; first compound 2.53 µM): 0.372
- relative viability (NCI-H2228; first compound 8 µM): 0.519
- relative viability (NCI-H460; first compound 0.08 µM): 0.215
- relative viability (NCI-H460; first compound 0.253 µM): 0.178
- relative viability (NCI-H460; first compound 0.8 µM): 0.123
- relative viability (NCI-H460; first compound 2.53 µM): 0.104
- relative viability (NCI-H460; first compound 8 µM): 0.151
- relative viability (NCI-H596; first compound 0.08 µM): 1.02
- relative viability (NCI-H596; first compound 0.253 µM): 0.837
- relative viability (NCI-H596; first compound 0.8 µM): 0.815
- relative viability (NCI-H596; first compound 2.53 µM): 0.722
- relative viability (NCI-H596; first compound 8 µM): 0.744
- relative viability (NCI-H650; first compound 0.08 µM): 0.965
- relative viability (NCI-H650; first compound 0.253 µM): 0.961
- relative viability (NCI-H650; first compound 0.8 µM): 0.967
- relative viability (NCI-H650; first compound 2.53 µM): 0.768
- relative viability (NCI-H650; first compound 8 µM): 1
- relative viability (NCI-H661; first compound 0.08 µM): 0.524
- relative viability (NCI-H661; first compound 0.253 µM): 0.612
- relative viability (NCI-H661; first compound 0.8 µM): 0.516
- relative viability (NCI-H661; first compound 2.53 µM): 0.429
- relative viability (NCI-H661; first compound 8 µM): 0.458
- relative viability (PC-3 [JPC-3]; first compound 0.08 µM): 0.744
- relative viability (PC-3 [JPC-3]; first compound 0.253 µM): 0.651
- relative viability (PC-3 [JPC-3]; first compound 0.8 µM): 0.657
- relative viability (PC-3 [JPC-3]; first compound 2.53 µM): 0.64
- relative viability (PC-3 [JPC-3]; first compound 8 µM): 0.915
- relative viability (RERF-LC-KJ; first compound 0.08 µM): 0.874
- relative viability (RERF-LC-KJ; first compound 0.253 µM): 0.945
- relative viability (RERF-LC-KJ; first compound 0.8 µM): 0.925
- relative viability (RERF-LC-KJ; first compound 2.53 µM): 0.918
- relative viability (RERF-LC-KJ; first compound 8 µM): 0.866
- relative viability (SK-MES-1; first compound 0.08 µM): 0.538
- relative viability (SK-MES-1; first compound 0.253 µM): 0.542
- relative viability (SK-MES-1; first compound 0.8 µM): 0.48
- relative viability (SK-MES-1; first compound 2.53 µM): 0.478
- relative viability (SK-MES-1; first compound 8 µM): 0.438
- relative viability (SW 1573; first compound 0.08 µM): 0.586
- relative viability (SW 1573; first compound 0.253 µM): 0.596
- relative viability (SW 1573; first compound 0.8 µM): 0.547
- relative viability (SW 1573; first compound 2.53 µM): 0.553
- relative viability (SW 1573; first compound 8 µM): 0.557
